Positions of bridges follow the written chain, without caps; N, C: chain ends. Residues, ends and D or L forms follow the SMILES beside them.

As a reminder, the Kd is a measure of binding affinity in units of concentration.

For this test, the target named is T1, recombinant human Seprase (rhuSeprase) (Homo sapiens, UniProt Q12884).
T1 construct: named pCEP4-IgKappa-huSeprase-coCHO_26-760aa-H6 and used for the generation of recombinant soluble human Seprase (rhuSeprase); mouse Ig kappa-chain V-J2-C secretion signal (N, cleaved yes); made in house; host or cells: FreeStyle CHO-S cells (transient transfection; purified from supernatant by Ni-chelate and SEC)
T1 sequence (Q12884 26-760): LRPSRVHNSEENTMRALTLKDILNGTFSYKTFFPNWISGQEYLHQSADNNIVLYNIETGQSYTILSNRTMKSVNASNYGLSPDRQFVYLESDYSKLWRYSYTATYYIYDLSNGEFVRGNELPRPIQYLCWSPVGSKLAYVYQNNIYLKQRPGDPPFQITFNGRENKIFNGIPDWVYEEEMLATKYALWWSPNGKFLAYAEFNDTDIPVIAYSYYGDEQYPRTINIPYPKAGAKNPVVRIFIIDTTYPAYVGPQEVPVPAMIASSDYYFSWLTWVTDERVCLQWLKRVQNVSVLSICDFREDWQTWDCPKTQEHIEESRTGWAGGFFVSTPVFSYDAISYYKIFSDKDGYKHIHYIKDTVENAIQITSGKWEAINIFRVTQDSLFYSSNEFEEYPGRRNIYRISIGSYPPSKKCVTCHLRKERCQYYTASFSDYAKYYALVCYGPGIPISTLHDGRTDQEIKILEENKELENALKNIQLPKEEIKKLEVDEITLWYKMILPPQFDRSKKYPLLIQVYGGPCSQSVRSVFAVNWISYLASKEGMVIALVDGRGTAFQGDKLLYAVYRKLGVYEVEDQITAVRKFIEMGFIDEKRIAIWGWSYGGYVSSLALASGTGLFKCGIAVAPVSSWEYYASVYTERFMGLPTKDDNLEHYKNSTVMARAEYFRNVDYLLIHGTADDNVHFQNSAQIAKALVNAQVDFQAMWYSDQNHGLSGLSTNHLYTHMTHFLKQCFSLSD
The experiment in a line: Surface plasmon resonance (Biacore T100) on immobilized rhuSeprase. Format: binding. Particulars: for kon: read-out: ka (1/Ms). On the technique in general: SPR reads the build-up and loss of mass on a sensor chip optically.

For `CC(C)C[C@@H]1NC(=O)[C@@H]2CSSC[C@@H](C(=O)NCC(=O)O)NC(=O)[C@H](Cc3ccccc3)NC(=O)CNC(=O)[C@H](CC(N)=O)NC(=O)[C@@H]3CCCN3C(=O)CNC(=O)[C@@H]3CSSC[C@H](NC(=O)[C@H](CC(=O)O)NC(=O)[C@@H]4CCCN4C(=O)CNC(=O)[C@H](CCCNC(=N)N)NC(=O)CNC(=O)[C@@H]4CCCN4C(=O)[C@H]([C@@H](C)O)NC(=O)[C@H](Cc4c[nH]c5ccccc45)NC(=O)[C@H](CC(N)=O)NC(=O)[C@H](CO)NC(=O)[C@H](Cc4ccc(O)cc4)NC(=O)[C@@H]4CCCN4C(=O)[C@@H](NC(=O)[C@H](C)NC(=O)CNC(=O)[C@H](CO)NC(=O)CN)CSSC[C@H](NC(=O)CNC(=O)[C@H](C)NC1=O)C(=O)N[C@@H](C(C)C)C(=O)N3)C(=O)N[C@@H](CO)C(=O)N[C@@H](CCC(N)=O)C(=O)N[C@@H](CC(=O)O)C(=O)N[C@@H](CO)C(=O)N[C@@H](CC(=O)O)C(=O)N2` [ET-FA-012] (H-GSGACPYSNWTPGRGPDCSQDSDCLAGCVCGPNGFCG-OH; disulfide 5-28, 18-30, 24-36; N-terminus and C-terminus assumed), the “kd” value is 0.8528 s⁻¹ and the kon stood at 608000 M⁻¹ s⁻¹.

As to `CC[C@H](C)[C@@H]1NC(=O)[C@@H]2CSSC[C@H](NC(=O)[C@H](C)NC(=O)CNC(=O)[C@H](CO)NC(=O)CN)C(=O)N3CCC[C@H]3C(=O)N[C@@H](Cc3ccc(O)cc3)C(=O)N[C@@H](CO)C(=O)N[C@@H](CCCNC(=N)N)C(=O)N[C@@H](Cc3c[nH]c4ccccc34)C(=O)N[C@@H](CCSC)C(=O)N3CCC[C@H]3C(=O)NCC(=O)N[C@@H](CCCNC(=N)N)C(=O)NCC(=O)N3CCC[C@H]3C(=O)N[C@@H](CO)C(=O)N[C@H]3CSSC[C@H](NC1=O)C(=O)N[C@@H](CCCNC(=N)N)C(=O)NCC(=O)N[C@@H](CC(N)=O)C(=O)NCC(=O)N[C@@H](Cc1ccc(O)cc1)C(=O)N[C@H](C(=O)NCC(=O)O)CSSC[C@H](NC(=O)[C@H](CC(=O)O)NC(=O)[C@H](CO)NC(=O)[C@H](CC(=O)O)NC(=O)[C@H](CCCNC(=N)N)NC(=O)[C@H](CCCNC(=N)N)NC3=O)C(=O)N1CCC[C@H]1C(=O)NCC(=O)N[C@@H](CCCNC(=N)N)C(=O)N2` [FA7-A05] (H-GSGACPYSRWMPGRGPSCRRDSDCPGRCICRGNGYCG-OH; disulfide 5-28, 18-30, 24-36; N-terminus and C-terminus assumed), the “kd” value was found to be 0.05035 s⁻¹ and the kon turned out to be 246000 M⁻¹ s⁻¹.

For `CC[C@H](C)[C@@H]1NC(=O)[C@@H]2CSSC[C@H](NC(=O)[C@H](C)NC(=O)CNC(=O)[C@H](CO)NC(=O)CN)C(=O)N3CCC[C@H]3C(=O)N[C@@H](Cc3ccc(O)cc3)C(=O)N[C@@H]([C@@H](C)O)C(=O)N[C@@H](CC(N)=O)C(=O)N[C@@H](Cc3c[nH]c4ccccc34)C(=O)N[C@@H](CCCNC(=N)N)C(=O)N3CCC[C@H]3C(=O)NCC(=O)N[C@@H](CCCNC(=N)N)C(=O)NCC(=O)N3CCC[C@H]3C(=O)N[C@@H](C)C(=O)N[C@H]3CSSC[C@H](NC1=O)C(=O)N[C@@H](CCCNC(=N)N)C(=O)NCC(=O)N[C@@H](CC(N)=O)C(=O)NCC(=O)N[C@@H](Cc1ccc(O)cc1)C(=O)N[C@H](C(=O)NCC(=O)O)CSSC[C@H](NC(=O)[C@H](CC(=O)O)NC(=O)[C@H](CO)NC(=O)[C@H](CC(=O)O)NC(=O)[C@H](CCCNC(=N)N)NC(=O)[C@H](CCCNC(=N)N)NC3=O)C(=O)N1CCC[C@H]1C(=O)NCC(=O)N[C@@H](CCCNC(=N)N)C(=O)N2` [FA8-C09] (H-GSGACPYTNWRPGRGPACRRDSDCPGRCICRGNGYCG-OH; disulfide 5-28, 18-30, 24-36; N-terminus and C-terminus assumed), the “kd” value was determined as 2.935 s⁻¹ and the kon was 9.92e+06 M⁻¹ s⁻¹.

Consider `CC[C@H](C)[C@@H]1NC(=O)[C@@H]2CSSC[C@H](NC(=O)[C@H](C)NC(=O)CNC(=O)[C@H](CO)NC(=O)CN)C(=O)N3CCC[C@H]3C(=O)N[C@@H](Cc3ccc(O)cc3)C(=O)N[C@@H]([C@@H](C)O)C(=O)N[C@@H](CCCNC(=N)N)C(=O)N[C@@H](Cc3c[nH]c4ccccc34)C(=O)N[C@@H](C)C(=O)N[C@@H](C(C)C)C(=O)NCC(=O)N[C@@H](CCCNC(=N)N)C(=O)NCC(=O)N3CCC[C@H]3C(=O)N[C@@H](CC(=O)O)C(=O)N[C@H]3CSSC[C@H](NC1=O)C(=O)N[C@@H](CCCNC(=N)N)C(=O)NCC(=O)N[C@@H](CC(N)=O)C(=O)NCC(=O)N[C@@H](Cc1ccc(O)cc1)C(=O)N[C@H](C(=O)NCC(=O)O)CSSC[C@H](NC(=O)[C@H](CC(=O)O)NC(=O)[C@H](CO)NC(=O)[C@H](CC(=O)O)NC(=O)[C@H](CCCNC(=N)N)NC(=O)[C@H](CCCNC(=N)N)NC3=O)C(=O)N1CCC[C@H]1C(=O)NCC(=O)N[C@@H](CCCNC(=N)N)C(=O)N2` [FA8-D03] (H-GSGACPYTRWAVGRGPDCRRDSDCPGRCICRGNGYCG-OH; disulfide 5-28, 18-30, 24-36; N-terminus and C-terminus assumed), for which the “kd” value came out at 0.1381 s⁻¹ and the kon is 939000 M⁻¹ s⁻¹.

`CC[C@H](C)[C@@H]1NC(=O)[C@@H]2CSSC[C@H](NC(=O)[C@H](C)NC(=O)CNC(=O)[C@H](CO)NC(=O)CN)C(=O)N3CCC[C@H]3C(=O)N[C@@H](Cc3ccc(O)cc3)C(=O)N[C@@H]([C@@H](C)O)C(=O)N[C@@H](CCCNC(=N)N)C(=O)N[C@@H](Cc3c[nH]c4ccccc34)C(=O)N[C@@H](CCC(N)=O)C(=O)N3CCC[C@H]3C(=O)NCC(=O)N[C@@H](CCCNC(=N)N)C(=O)NCC(=O)N3CCC[C@H]3C(=O)N[C@@H](CO)C(=O)N[C@H]3CSSC[C@H](NC1=O)C(=O)N[C@@H](CCCNC(=N)N)C(=O)NCC(=O)N[C@@H](CC(N)=O)C(=O)NCC(=O)N[C@@H](Cc1ccc(O)cc1)C(=O)N[C@H](C(=O)NCC(=O)O)CSSC[C@H](NC(=O)[C@H](CC(=O)O)NC(=O)[C@H](CO)NC(=O)[C@H](CC(=O)O)NC(=O)[C@H](CCCNC(=N)N)NC(=O)[C@H](CCCNC(=N)N)NC3=O)C(=O)N1CCC[C@H]1C(=O)NCC(=O)N[C@@H](CCCNC(=N)N)C(=O)N2` [FA8-D05] (H-GSGACPYTRWQPGRGPSCRRDSDCPGRCICRGNGYCG-OH; disulfide 5-28, 18-30, 24-36; N-terminus and C-terminus assumed): the “kd” value was found to be 0.8121 s⁻¹ and the kon worked out at 4.21e+06 M⁻¹ s⁻¹.

In the case of `CC[C@H](C)[C@@H]1NC(=O)[C@@H]2CSSC[C@H](NC(=O)[C@H](C)NC(=O)CNC(=O)[C@H](CO)NC(=O)CN)C(=O)N3CCC[C@H]3C(=O)N[C@@H](Cc3ccc(O)cc3)C(=O)N[C@@H](CO)C(=O)N[C@@H](CCCNC(=N)N)C(=O)N[C@@H](Cc3c[nH]c4ccccc34)C(=O)N[C@@H](C)C(=O)N[C@@H](C(C)C)C(=O)NCC(=O)N[C@@H](CCCNC(=N)N)C(=O)NCC(=O)N3CCC[C@H]3C(=O)N[C@@H](CC(=O)O)C(=O)N[C@H]3CSSC[C@H](NC1=O)C(=O)N[C@@H](CCCNC(=N)N)C(=O)NCC(=O)N[C@@H](CC(N)=O)C(=O)NCC(=O)N[C@@H](Cc1ccc(O)cc1)C(=O)N[C@H](C(=O)NCC(=O)O)CSSC[C@H](NC(=O)[C@H](CC(=O)O)NC(=O)[C@H](CO)NC(=O)[C@H](CC(=O)O)NC(=O)[C@H](CCCNC(=N)N)NC(=O)[C@H](CCCNC(=N)N)NC3=O)C(=O)N1CCC[C@H]1C(=O)NCC(=O)N[C@@H](CCCNC(=N)N)C(=O)N2` [FA8-D06] (H-GSGACPYSRWAVGRGPDCRRDSDCPGRCICRGNGYCG-OH; disulfide 5-28, 18-30, 24-36; N-terminus and C-terminus assumed), the “kd” value turned out to be 0.05303 s⁻¹ and the kon was determined as 346000 M⁻¹ s⁻¹. In addition, for the setting “KD (M, steady state)”, the dissociation constant (Kd) is 113 nM.

These data come from patent US10370433B2, “Compositions and methods for diagnosis and treatment of cancer” (BIONTECH AG, priority 2015, dated 2019).
